From patent publication US6090834A, “Substituted oxazoles for the treatment of inflammation” (G.D. Searle & Co., priority 1998, dated 2000) come the findings set out here.

A value given as a limit tells only on which side of the number the result lay.

One assay concerns carrageenan foot edema. The assay is described as follows: Rat Carrageenan Foot Pad Edema Test. Format: in vivo, Male Sprague-Dawley rats. The settings on record: Rattus norvegicus; 10 mg/kg body weight, oral, 3 h after carrageenan; read-out: RAT PAW EDEMA % Inhibition @ 10 mg/kg body weight. On the procedure: Rat Carrageenan Foot Pad Edema Test
Male Sprague-Dawley rats were selected in each group so that the average body weight was as close as possible. Rats were fasted with free access to water for over sixteen hours prior to the test. […] One hour later a subplantar injection of 0.1 mL of 1% solution of carrageenan/sterile 0.9% saline was administered and the volume of the injected foot was measured with a displacement plethysmometer connected to a pressure transducer with a digital indicator. Three hours after the injection of the carrageenan, the volume of the foot was again measured.
On the technique in general: In the carrageenan paw model, swelling and tenderness develop within hours.

In another assay the test system is COX-1. The assay is described as follows: COX-1 activity in vitro (PGE2 formed, ELISA). Format: biochemical, human or murine. The settings on record: recombinant enzyme, arachidonic acid 10 μM, pH 8.0; read-out: COX-1 ID50. As for the experimental part:
(§1) Evaluation of COX I and COX II activity in vitro
(§2) The COX-2 inhibition activity of the compounds of this invention illustrated in the Examples was determined by the following methods. a. Preparation of recombinant COX baculoviruses
(§3) Recombinant COX-1 and COX-2 were prepared as described by Gierse et al, [J. Biochem., 305, 479-84 (1995)]. A 2.0 kb fragment containing the coding region of either human or murine COX-1 or human or murine COX-2 was cloned into a BamH1 site of the baculovirus transfer vector pVL1393 (Invitrogen) to generate the baculovirus transfer vectors for COX-1 and COX-2 in a manner similar to the method of D. R. O'Reilly et al (Baculovirus Expression Vectors: A Laboratory Manual (1992)). Recombinant baculoviruses were isolated by transfecting 4 μg of baculovirus transfer vector DNA into SF9 insect cells (2×10^8) along with 200 ng of linearized baculovirus plasmid DNA by the calcium phosphate method. See M. D. Summers and G. E. Smith, A Manual of Methods for Baculovirus vectors and Insect Cell Culture Procedures, Texas Agric. Exp. Station Bull. 1555 (1987). Recombinant viruses were purified by three rounds of plaque purification and high titer (10^7 -10^8 pfu/ml) stocks of virus were prepared. For large scale production, SF9 insect cells were infected in 10 liter fermentors (0.5×10^6 /ml) with the recombinant baculovirus stock such that the multiplicity of infection was 0.1. After 72 hours the cells were centrifuged and the cell pellet homogenized in Tris/Sucrose (50 mM: 25%, pH 8.0) containing 1% 3-[(3-cholamidopropyl)dimethylammonio]-1-propanesulfonate (CHAPS). The homogenate was centrifuged at 10,000×G for 30 minutes, and the resultant supernatant was stored at -80° C. before being assayed for COX activity. […]
(§4) b. Assay for COX-1 and COX-2 activity
(§5) COX activity was assayed as PGE2 formed/μg protein/time using an ELISA to detect the prostaglandin released. CHAPS-solubilized insect cell membranes containing the appropriate COX enzyme were incubated in a potassium phosphate buffer (50 mM, pH 8.0) containing epinephrine, phenol, and heme with the addition of arachidonic acid (10 μM). Compounds were pre-incubated with the enzyme for 10-20 minutes prior to the addition of arachidonic acid. Any reaction between the arachidonic acid and the enzyme was stopped after ten minutes at 37° C./room temperature by transferring 40 μl of reaction mix into 160 μl ELISA buffer and 25 μM indomethacin. The PGE2 formed was measured by standard ELISA technology (Cayman Chemical).
(An ELISA detects its analyte on a solid surface through an enzyme-linked reagent.)

Another assay deals with COX-2. In words: COX-2 activity in vitro (PGE2 formed, ELISA). Format: biochemical, human or murine. The settings on record: recombinant enzyme, arachidonic acid 10 μM, pH 8.0; read-out: COX II ID50. On the procedure:
as §1, §2, §3, §4, §5

For the compound `CS(=O)(=O)c1ccc(-c2oc(-c3ccccc3)nc2-c2ccc(F)cc2)cc1` [Example 3, 4-(4-Fluorophenyl)-5-[4-(methylsulfonyl)phenyl]-2-phenyloxazole], in the assay with carrageenan foot edema, the inhibition in vivo at 10 mg/kg came to 30%. In addition, the IC50 in the assay with COX-1 is greater than 10 µM; with COX-2, less than 0.1 µM.

As to `CC(C)(C)c1nc(-c2ccc(F)cc2)c(-c2ccc(S(C)(=O)=O)cc2)o1` [Example 7, 2-(Tert-butyl)-4-(4-fluorophenyl)-5-[4-(methylsulfonyl)phenyl]oxazole], the inhibition in vivo at 10 mg/kg in the assay on carrageenan foot edema worked out at 24%.

For the compound `COc1ccc(Cc2nc(-c3ccc(F)cc3)c(-c3ccc(S(C)(=O)=O)cc3)o2)cc1` [Example 8, 4-(4-Fluorophenyl)-2-(4-methoxyphenyl)methyl-5-[4-methylsulfonylphenyl]oxazole], the inhibition in vivo at 10 mg/kg in the assay on carrageenan foot edema is 12%.

With `CS(=O)(=O)c1ccc(-c2oc(C(c3ccccc3)c3ccccc3)nc2-c2ccc(F)cc2)cc1` [Example 10, 2-Diphenylmethyl-4-(4-fluorophenyl)-5-[4-methylsulfonylphenyloxazole]], in the assay with carrageenan foot edema, the inhibition in vivo at 10 mg/kg was 18%.

With `CCOC(=O)Cc1nc(-c2ccc(F)cc2)c(-c2ccc(S(C)(=O)=O)cc2)o1` [Example 11], the inhibition in vivo at 10 mg/kg with carrageenan foot edema is 42%.

Turning to `CS(=O)(=O)c1ccc(-c2oc(CC(=O)O)nc2-c2ccc(F)cc2)cc1` [Example 16, 2-[4-(4-Fluorophenyl)-5-[4-(methylsulfonyl)phenyl]oxazol-2-yl]acetic acid], the inhibition in vivo at 10 mg/kg in the assay with carrageenan foot edema was 26%. Same read-out and setting: for `CS(=O)(=O)c1ccc(-c2oc(COc3ccccc3)nc2-c2ccc(F)cc2)cc1` [Example 28, 4-(4-fluorophenyl)-5-[4-(methylsulfonyl)-phenyl]-2-phenoxymethyloxazole] the value was 2%. Regarding `CS(=O)(=O)c1ccc(-c2oc(COc3cccc(Cl)c3)nc2-c2ccc(F)cc2)cc1` [Example 30, 4-(4-fluorophenyl)-5-[4-(methylsulfonyl)phenyl]-2-(3-chlorophenoxy)methyloxazole], in the assay with carrageenan foot edema, the inhibition in vivo at 10 mg/kg was 4%. Besides, the values for the IC50 in the assay with COX-1 and in the assay on COX-2 were greater than 100 µM and less than 0.1 µM, respectively. As to `CS(=O)(=O)c1ccc(-c2oc(COc3ccc(F)cc3)nc2-c2ccc(F)cc2)cc1` [Example 31, 4-(4-fluorophenyl)-5-[4-(methylsulfonyl)-phenyl]-2-[(4-fluorophenoxy)methyl]oxazole], in the assay with carrageenan foot edema, the inhibition in vivo at 10 mg/kg is 5%. Also, the IC50 with COX-1 is greater than 100 µM; in the assay with COX-2, less than 0.1 µM. For `Cc1ccc(-c2nc(C(F)(F)F)oc2-c2ccc(S(C)(=O)=O)cc2)cc1` [Example 68, 4-(4-methylphenyl)-5-(4-methylsulfonylphenyl)-2-trifluoromethyl-oxazole], the IC50 was 2 µM with COX-1 and less than 0.1 µM in the assay with COX-2. Turning to `COc1ccc(-c2oc(C)nc2-c2ccc(S(N)(=O)=O)cc2)cc1F` [Example 69], the IC50 in the assay on COX-1 is 79 µM; with COX-2, 0.5 µM.

On to `COc1c(F)cc(-c2oc(C(F)(F)F)nc2-c2ccc(S(N)(=O)=O)cc2)cc1Br` [Example 71, 4-[5-(3-bromo-4-methoxy-5-fluorophenyl)-2-trifluoromethyl-4-oxazolyl]benzenesulfonamide], for which the IC50 is 51 µM in the assay with COX-1 and 0.1 µM with COX-2. The like results for `NC(=O)c1nc(-c2ccccc2)c(-c2ccc(S(N)(=O)=O)cc2)o1` [Example 72, 5-(4-aminosulfonylphenyl)-4-phenyl-oxazole-2-carboxamide] were, in that order, greater than 100 µM and 2.2 µM. The like results for `COCc1nc(-c2ccccc2)c(-c2ccc(S(N)(=O)=O)cc2)o1` [Example 73, 4-[2-methoxymethyl-4-phenyl-oxazolyl]benzenesulfonamide] were, in that order, 47.5 µM and less than 0.1 µM. Turning to `NS(=O)(=O)c1ccc(-c2oc(CO)nc2-c2ccccc2)cc1` [Example 75, 4-[2-hydroxymethyl-4-phenyl-5-oxazolyl]benzenesulfonamide], the IC50 was greater than 100 µM with COX-1 and less than 0.1 µM in the assay on COX-2.
